Holding throughout (format): protein assay
Assay [1] has as its target T1, Mushroom tyrosinase (Agaricus bisporus) (UniProt O42713+Q00024+C7FF04+C7FF05). The assay is described as follows: Inhibition of mushroom Tyrosinase using L-DOPA as substrate assessed as change in absorbance at 50 to 100 uM by spectrophotometric analysis. To be noted: dose 50-100 µM.
Assay [2] deals with T1, Mushroom tyrosinase (Agaricus bisporus). In words: Inhibition of mushroom Tyrosinase using L-DOPA as substrate assessed as reduction in oxygen consumption.
Assay [3] shares this target. In words: Inhibition of mushroom Tyrosinase using L-DOPA as substrate assessed as change in absorbance at 50 to 100 uM at 305 nm by spectrophotometric analysis. To be noted: dose 50-100 µM.
Assay [4] shares this target. The assay is described as follows: Inhibition of mushroom Tyrosinase using L-DOPA as substrate assessed as reduction in oxygen consumption measured after 10 mins.

The record followed here is ChEMBL document CHEMBL6078627, “Epigallocatechin and epigallocatechin-3-gallate are not inhibitors of tyrosinase” (Bioorg Med Chem Lett, 2024).

Calls of active or inactive are those of the source. The rule behind the calls is not given here.

Take `Oc1cc(O)c2c(c1)O[C@H](c1cc(O)c(O)c(O)c1)[C@H](O)C2`: the inhibition entry in assay [1], in assay [2] and in assay [3] was “Active” in each case.
For the compound `O=C(O)c1cc(O)c(O)c(O)c1`, the inhibition result in assay [1], in assay [2] and in assay [3] was “Active” in each case.
On to `O=C(O[C@@H]1Cc2c(O)cc(O)cc2O[C@@H]1c1cc(O)c(O)c(O)c1)c1cc(O)c(O)c(O)c1`, for which the inhibition result in assay [1], in assay [2] and in assay [3] was “Active” each time. For the same compound, the inhibition in assay [4] turned out to be 10%.
